Experimental data as given in publication PMC8787483 (mBio, 2022).

Target: Gnp2 (CR_09920W) (Candida albicans, UniProt A0A1D8PU37)
Conditions: 10 mM proline as sole carbon source, YNB, ammonium sulfate, pH 4.5, 37 °C, 6 h

Chain of Gnp2 (CR_09920W) (A0A1D8PU37 entry or part of it): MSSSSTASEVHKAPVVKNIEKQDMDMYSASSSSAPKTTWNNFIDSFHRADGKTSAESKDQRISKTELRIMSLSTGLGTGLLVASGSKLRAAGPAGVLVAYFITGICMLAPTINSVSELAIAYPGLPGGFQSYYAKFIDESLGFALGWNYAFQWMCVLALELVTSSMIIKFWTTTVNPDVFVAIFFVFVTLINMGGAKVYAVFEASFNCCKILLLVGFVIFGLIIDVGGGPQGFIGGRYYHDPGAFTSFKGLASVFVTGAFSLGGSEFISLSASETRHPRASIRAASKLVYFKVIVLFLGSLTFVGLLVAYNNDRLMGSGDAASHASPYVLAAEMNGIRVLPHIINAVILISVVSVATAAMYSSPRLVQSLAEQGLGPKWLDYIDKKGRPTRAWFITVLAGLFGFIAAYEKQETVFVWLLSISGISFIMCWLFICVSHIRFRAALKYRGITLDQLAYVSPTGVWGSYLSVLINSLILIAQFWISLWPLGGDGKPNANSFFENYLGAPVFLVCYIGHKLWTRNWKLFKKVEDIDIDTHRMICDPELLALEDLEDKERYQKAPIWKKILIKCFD

## O=C(O)[C@@H]1CCCN1 [proline]
  LC-MS of extracellular proline, wild type vs gnp2 deletion vs complemented cells: extracellular proline concentration was significantly reduced in the wild type and the GNP2 complemented strain
